{"source": "paper PMC9186531", "about": "“Biochemical and structural characterization of the flavodoxin-like domain of the Schizosaccharomyces japonicus putative tRNA ^Phe 4-demethylwyosine synthase Tyw1 in complex with FMN” (microPublication Biology, 2022)", "target": "T1, Tyw1 30-251 (Schizosaccharomyces japonicus, UniProt B6K6D6)", "T1 construct": "flavodoxin-like domain with N-terminal extension, residues 30-251; N-terminal TRX-6His or MBP-6His tag with TEV site, tag cleaved; E. coli KRX; monomer; calculated mass 24940 Da, MS 25010 Da", "T1 sequence (B6K6D6 30-251)": "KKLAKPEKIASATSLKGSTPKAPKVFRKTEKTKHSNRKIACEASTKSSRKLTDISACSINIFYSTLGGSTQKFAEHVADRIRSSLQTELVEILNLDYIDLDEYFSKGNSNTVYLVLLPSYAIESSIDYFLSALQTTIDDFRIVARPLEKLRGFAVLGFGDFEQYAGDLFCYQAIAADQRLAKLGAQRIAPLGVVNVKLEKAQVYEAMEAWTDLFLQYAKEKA", "assay": "X-ray crystal structure (molecular replacement, […] A)", "format": "binding", "conditions": "co-purified oxidized FMN; crystals pH 8.5, 288 K; unit occupancy"}
{"smiles": "Cc1cc2nc3c(=O)[nH]c(=O)nc-3n(C[C@H](O)[C@H](O)[C@H](O)COP(=O)(O)O)c2cc1C", "note": "[FMN]", "values": [{"measurement": "X-ray crystal structure (molecular replacement, 1.5 A)", "value": "FMN density was strong and was modeled with unit occupancy in both structures."}]}
